Laboratory results: article PMC10529594, “Strasseriolides display in vitro and in vivo activity against trypanosomal parasites and cause morphological and size defects in Trypanosoma cruzi” (PLOS Neglected Tropical Diseases, 2023)
Read-outs that look alike come from different tables or passages of the source.

What was measured:
[1] = test system: T. cruzi Tulahuen C4 trypomastigotes; test: T. cruzi trypomastigote viability assay (resazurin fluorescence); type: cell-based, Trypanosoma cruzi; settings: Tulahuen C4, 72 hours at 37°C
Procedure: Tulahuen T. cruzi trypomastigotes were recovered 6 days post infection from the supernatant of harvested infected L6 cells cultures after 3 hours at 37°C. 90 μL of parasite culture at a density of 5 × 10^6 cells in RPMI 1640 media were dispensed into 96 Nunc flat bottom assay plates containing 10 μL of each compound.
In the fluorescence assay, plates were incubated for 24 and 48 hours after which 10 μL of the resazurin solution were added to each well. Plates were further incubated for 24 hours and fluorescence was measured at 550/590 nm using a Tecan Infinite 200 microplate reader. […] Final maximal DMSO percentage in the well was 0.1% and compound concentrations ranged from 0.2 to 100 μM.

[2] = test system: T. cruzi Tulahuen C4 intracellular amastigotes; test: β-D-galactosidase transgenic T. cruzi assay (intracellular amastigotes in L6 cells, CPRG); type: cell-based; settings: Trypanosoma cruzi; for inhibition at 0.00152588 µM / inhibition at 0.00305176 µM / inhibition at 0.00610352 µM / inhibition at 0.012207 µM / inhibition at 0.0244141 µM / inhibition at 0.0488281 µM / inhibition at 0.0976562 µM / inhibition at 0.195312 µM / inhibition at 0.390625 µM / inhibition at 0.78125 µM / inhibition at 1.5625 µM / inhibition at 3.125 µM / inhibition at 6.25 µM / inhibition at 12.5 µM / inhibition at 25 µM / inhibition at 50 µM: TULAHUEN, L6, T. cruzi amastigotes, 96-hour treatment, read-out: Growth inhibition (%) Average; for EC50: Tulahuen C4 in L6 cells, 96 h, CPRG
Procedure: (§1) The Trypanosoma cruzi Tulahuen strain used is a genetically modified strain that expresses the Escherichia coli β-galactosidase gene, lacZ [31]. It was kindly supplied by Marcel Kaiser (Swiss Tropical and Public Health Institute). The T. cruzi Tulahuen C4 strain was cultured in RPMI-1640 supplemented with 10% inactivated FBS (iFBS), 1.7 mM L-glutamine, 100 U/mL penicillin, and […] at 37°C and 5% CO2. L6 rat skeletal muscle cells were purchased from ATCC (reference CRL-1458) and used as host cells for infection with transgenic T. cruzi trypomastigotes. Epimastigotes were obtained by differentiation in LIT medium with 10% iFBS at 28°C from trypomastigote forms.
A Thermo Scientific Multidrop Combi dispenser was used to dispense 55 μL of T. cruzi infected L6 cells (2 ×10^3 cells per well) into 384-well Corning assay plates already containing 5 μL of each compound at concentrations ranging from 0.0015 to 50 μM and controls. The plates were incubated at 37°C for 96 hours upon which 15 μL of lysis buffer (0.5 mM CPRG, 0.5% NP40) were added to each well and further incubated for 4 hours in the dark. Absorbance at 585 nm was measured in a Perkin Elmer Envision plate reader.

[3] = test system: T. cruzi Tulahuen C4 epimastigotes; test: T. cruzi epimastigotes growth inhibition assay (resazurin); type: cell-based, Trypanosoma cruzi; settings: for EC30, epimastigotes / EC70, epimastigotes: from dose-response curve; for EC50: Tulahuen C4, 72 h, resazurin
Procedure: as §1
A resazurin-based assay was set up in 96-well microplates containing 10 μL of test compound at concentrations ranging from 0.39 to 200 μM and log phase parasites seeded at 2 × 10^5 cells per well in a final volume of 100 μL. Maximum DMSO percentage in the well was 0.2%. Positive and negative growth controls were included. Following 72 hour incubation at 28°C with orbital shaking, 10 μL of resazurin solution were added to each well and the plates were returned to the incubator for 4 hours. Resazurin reduction was correlated to cell viability by fluorescence measurement with excitation and emission wavelength bands centered at 550 and 590 nm, respectively, in a Tecan Infinite 200 microplate reader.

L6 rat myoblast cells = test: Cytotoxicity evaluation in L6 cells (resazurin); type: cell-based; settings: for EC50: Rattus norvegicus, Myoblast, 72 h, read-out: EC50 L6
Procedure: One hundred microliters of supplemented RPMI 1640 medium containing the compounds and controls were added to L6 rat myoblast cells previously seeded (4,000 cells per well) in a 96-well microplate. After 72 hours at 37°C the viable cell number was determined by resazurin reduction. 20 μL of resazurin at 0.11 mg/mL in PBS 1X were added to each well and incubated in the dark for 2 hours at 37°C. Cell viability was estimated by measuring the final fluorescence at 570–590 nm in a Tecan Infinite F200 plate reader.

[4] = test system: human macrophage THP-1 cells; test: Cytotoxicity in THP-1 macrophages (MTT); type: cell-based; settings: for EC50: Homo sapiens, read-out: EC50 THP-1
Procedure: Cellular toxicity of compounds in the human macrophage host TPH-1 cell line was determined using the colorimetric MTT-based assay as previously described.
THP-1 cells were seeded at 3 × 10^4 cells/well in 96-well plates and were differentiated to macrophages with 20 ng/ml of PMA treatment for 48 h followed by 24 h incubation in fresh medium. Strasseriolides were added at increasing concentrations up to 50 μM and cells were further incubated at 37°C for 72 h. 10 μL of MTT (5 mg/mL in PBS) were added to each well, and plates were incubated for an additional period of 8 h at 37°C. Formazan crystals were dissolved by adding 50 μL of 20% SDS and absorbance was read at 595 nm using a microplate reader.

[5] = test system: T. b. brucei 427 bloodstream forms; test: Resazurin-based T. b. brucei assay; type: cell-based; settings: Trypanosoma brucei, 72 h, read-out: EC50 T. brucei
Procedure: Parasites strains adapted to culture in vitro were used. T. b. brucei Lister 427 bloodstream form parasites (information about the identity and genealogy of this strain is available at The Rockefeller University website) were grown in HMI-9 medium supplemented with 10% heat-inactivated fetal bovine serum (iFBS).
Cells in logarithmic phase of growth were added using a Multidrop dispenser (45 μL, 500 bloodstream T. b. brucei parasites per well) to 384-well Corning assay plates already containing 5 μL of each compound and controls, and incubated for 72 hours at 37°C. 10 μL of resazurin were added per well, and the plates were further incubated for 6 hours at 37°C. The final fluorescence was determined at 550–590 nm. Pentamidine at 40 nM and 0.0067% DMSO were used as […] growth controls, respectively.

[6] = test system: L. donovani MHOM/ET/67/HU3 transgenic intracellular amastigotes; test: L. donovani intracellular amastigote assay (luciferase, THP-1 macrophages); type: cell-based; settings: Leishmania donovani, THP-1, 72 h, read-out: EC50 L. donovani
Procedure: Leishmania donovani MHOM/ET/67/HU3 cells with the luciferase gene integrated into the parasite genome was obtained as described. Parasites were grown at 28°C in RPMI 1640-modified medium supplemented with 20% heat-inactivated fetal bovine serum (iFBS, Invitrogen) with […] of hygromycin B.
THP-1 cells were differentiated into macrophages with 20 ng/mL of PMA in a 96-well plate at 3 × 10^4 cells per well for 48 hours followed by 24 hours of culture in fresh medium. Cells were then infected with transgenic stationary L. donovani MHOM/ET/67/HU3 promastigotes expressing the luciferase gene at a multiplicity of infection (MOI) of 10. A volume of 100 μL of culture media containing the test compounds was added to each well and the plates were incubated at 37°C for 72 hours. Luminescence was measured using the Promega kit luciferase assay system.

[7] = Trypanosoma cruzi, TULAHUEN, 72 h

Compound	EC50 [1, 7] [µM]	inhibition at 0.00152588 µM [2] [%]	inhibition at 0.00305176 µM [2] [%]	inhibition at 0.00610352 µM [2] [%]	inhibition at 0.012207 µM [2] [%]	inhibition at 0.0244141 µM [2] [%]	inhibition at 0.0488281 µM [2] [%]	inhibition at 0.0976562 µM [2] [%]	inhibition at 0.195312 µM [2] [%]	inhibition at 0.390625 µM [2] [%]	inhibition at 0.78125 µM [2] [%]	inhibition at 1.5625 µM [2] [%]	inhibition at 3.125 µM [2] [%]	inhibition at 6.25 µM [2] [%]	inhibition at 12.5 µM [2] [%]	inhibition at 25 µM [2] [%]	inhibition at 50 µM [2] [%]	EC50 [2] [µM]	EC50 [3, 7] [µM]	Selectivity index intracellular L. donovani versus THP-1 cells [4]	further results
O=C(Cn1ccnc1[N+](=O)[O-])NCc1ccccc1 [Benznidazole, benznidazole]	3.93	5.83	3.46	5.29	6.58	1.91	12.4	10.6	16.3	10.8	34.7	74	104	101	103	106	105	1	13	–	EC30, epimastigotes ([3]; 72 h): 7.5 µM; EC70, epimastigotes ([3]; 72 h): 22.5 µM; EC90 [3, 7]: 96 µM
C/C1=C\[C@H](C)CCC(=O)/C(C)=C/[C@H](C)C[C@@H](C)CC[C@@H]([C@@H](C)C(=O)O)OC(=O)[C@@H](C)C1 [Strasseriolide A, strasseriolide A]	> 25	11.7	9.68	6.95	5.87	3.26	6.89	2.91	12.5	4.42	3.14	3.55	3.27	4.63	11.4	39.4	86.7	31	> 50	> 8	Selectivity index T. cruzi Tulahuen C4 versus L6 cells (L6 rat myoblast cells): > 1; EC50 (L6 rat myoblast cells; resazurin): > 50 µM; EC50 ([4]; THP-1, 72 h, MTT): > 125 µM; EC50 [5]: 273 µM; cell growth reduction, epimastigotes ([3]; 72-hour exposure, 50 μM): less than 50%; EC50 [6]: > 15 µM
C/C1=C\[C@H](C)CC[C@@H](O)/C(C)=C/[C@H](C)C[C@@H](C)CC[C@@H]([C@@H](C)C(=O)O)OC(=O)[C@@H](C)C1 [Strasseriolide B, strasseriolide B]	< 0.2	4.52	4.82	6.25	11.4	8.7	6.79	10.8	52.7	98.7	112	113	113	113	113	115	117	0.21	< 0.4	4962	Selectivity index T. cruzi Tulahuen C4 versus L6 cells (L6 rat myoblast cells): 1; EC50 (L6 rat myoblast cells): 0.3 µM; EC50 ([4]; THP-1, 72 h): 161 µM; EC50 [5]: 27 µM; EC50 [3]: < 0.39 µM; EC50 [6]: 0.032 µM
C/C1=C\[C@H](C)C(=O)C[C@@H](O)/C(C)=C/[C@H](C)C[C@@H](C)CC[C@@H]([C@@H](C)C(=O)O)OC(=O)[C@@H](C)C1 [Strasseriolide C, strasseriolide C]	3.8	3.17	3.11	4.62	9.25	4.92	5.95	2.24	5.83	4.94	4.24	15.3	61.8	96	110	112	115	3.08	32.4	68	EC50 (L6 rat myoblast cells; resazurin): > 50 µM; EC50 [1]: 3.84 µM; EC50 ([4]; THP-1, 72 h, MTT): 448 µM; EC50 [5]: 59.6 µM; EC30, epimastigotes ([3]; 72 h): 28 µM; EC70, epimastigotes ([3]; 72 h): 47 µM; EC50 [6]: 6.63 µM
